Measured values published in ChEMBL document CHEMBL4385621, “Synthesis and in vitro cytotoxicity evaluation of β-carboline-combretastatin carboxamides as apoptosis inducing agents: DNA intercalation and topoisomerase-II inhibition” (Bioorg Med Chem, 2019).
pIC50, pKd: −log10 of the molar value. The source made the active and inactive calls. The rule behind the calls is not given here.

Key:
[1] = target: DNA topoisomerase II (Homo sapiens) (UniProt P11388+Q02880); assay: Inhibition of human topoisomerase-2 assessed as reduction in decatenation of kDNA at 10 uM incubated for 30 mins by ethidium bromide staining based agarose gel electrophoresis method; format: protein assay
A549 [2] = assay: Induction of apoptosis in human A549 cells after 24 hrs by Annexin V-FITC/propidium iodide staining based flow cytometry; format: functional, cell-based
Calf thymus DNA [3] = assay: Stabilization of calf thymus DNA assessed as hyperchromicity at DNA to compound ratio of 1:1 by circular dichroism spectropolarimetric analysis; format: nucleic-acid assay; settings: Bos taurus
A549 [4] = assay: Induction of apoptosis in human A549 cells assessed as late apoptotic cells at 1 uM after 24 hrs by Annexin V-FITC/propidium iodide staining based flow cytometry (reference value: 0.4%); format: functional
HeLa = assay: Antiproliferative activity against human HeLa cells assessed as reduction in cell viability after 48 hrs by SRB assay; format: functional, cell-based
A549 [5] = assay: Induction of apoptosis in human A549 cells assessed as early apoptotic cells at 1 uM after 24 hrs by Annexin V-FITC/propidium iodide staining based flow cytometry (reference value: 11.2%); format: functional
A549 [6] = assay: Induction of apoptosis in human A549 cells assessed as chromatin condensation at 1 uM after 24 hrs by Hoechst […] staining based fluorescence microscopic method; format: functional, cell-based
Calf thymus DNA [7] = assay: Binding affinity to calf thymus DNA assessed as unwinding effect at DNA to compound ratio of 1:1 to 1:2 by circular dichroism analysis; format: nucleic-acid assay; settings: Bos taurus
A549 [8] = assay: Induction of apoptosis in human A549 cells assessed as reduction in cell viability at 1 to 5 uM after 24 hrs by phase contrast microscopic method; format: functional, cell-based
A549 [9] = assay: Induction of apoptosis in human A549 cells assessed as nuclear fragmentation at 1 uM after 24 hrs by Hoechst […] staining based fluorescence microscopic method; format: functional, cell-based
Calf thymus DNA [10] = assay: Binding affinity to calf thymus DNA assessed as decrease in emission peak intensity using varying DNA level by spectrofluorimetric method; format: nucleic-acid assay; settings: Bos taurus
A549 [11] = assay: Induction of apoptosis in human A549 cells assessed as cell shrinkage at 1 to 5 uM after 24 hrs by phase contrast microscopic method; format: functional, cell-based
Calf thymus DNA [12] = assay: Effect on calf thymus DNA stabilization assessed as increase in negative band intensity by circular dichroism spectropolarimetric analysis; format: nucleic-acid assay; settings: Bos taurus
A549 [13] = assay: Induction of apoptosis in human A549 cells assessed as viable cells at 3 uM after 24 hrs by Annexin V-FITC/propidium iodide staining based flow cytometry (reference value: 88.4%); format: functional; settings: A549, 24 h, read-out: Activity
A549 [14] = assay: Induction of apoptosis in human A549 cells assessed as necrotic cells at 5 uM after 24 hrs by Annexin V-FITC/propidium iodide staining based flow cytometry (reference value: 0%); format: functional
A549 [15] = assay: Induction of apoptosis in human A549 cells assessed as increase in apoptotic nuclei at 3 to 5 uM after 24 hrs by Hoechst […] staining based fluorescence microscopic method; format: functional, cell-based
A549 [16] = assay: Cell cycle arrest in human A549 cells assessed as reduction in G0/G1 phase at 1 to 5 uM after 24 hrs by propidium iodide staining based flow cytometric analysis; format: functional
A549 [17] = assay: Cell cycle arrest in human A549 cells assessed as increase in accumulation of G2/M phase at 1 to 5 uM after 24 hrs by propidium iodide staining based flow cytometric analysis; format: functional
Calf thymus DNA [18] = assay: Binding affinity to calf thymus DNA assessed as hypochromicity at DNA to compound ratio of 1:1 to 1:2 by circular dichroism analysis; format: nucleic-acid assay; settings: Bos taurus
DU-145 = assay: Antiproliferative activity against human DU145 cells assessed as reduction in cell viability after 48 hrs by SRB assay; format: functional, cell-based; settings: DU-145, 48 h
A549 [19] = assay: Antiproliferative activity against human A549 cells assessed as reduction in cell viability after 48 hrs by SRB assay; format: functional, cell-based; settings: A549, 48 h
A549 [20] = assay: Induction of apoptosis in human A549 cells assessed as viable cells at 1 uM after 24 hrs by Annexin V-FITC/propidium iodide staining based flow cytometry (reference value: 88.4%); format: functional; settings: A549, 24 h, read-out: Activity
Calf thymus DNA [21] = assay: Binding affinity to calf thymus DNA assessed as hypochromicity after 5 mins by UV-Vis absorption spectral analysis; format: nucleic-acid assay; settings: Bos taurus
A549 [22] = assay: Induction of apoptosis in human A549 cells assessed as late apoptotic cells at 5 uM after 24 hrs by Annexin V-FITC/propidium iodide staining based flow cytometry (reference value: 0.4%); format: functional
A549 [23] = assay: Induction of apoptosis in human A549 cells assessed as increase in ROS generation at 1 to 5 uM after 24 hrs by Carboxy-DCFDA dye based fluorescence microscopic method; format: functional, cell-based
Calf thymus DNA [24] = assay: Binding affinity to calf thymus DNA assessed as confirmational change at DNA to compound ratio of 1:1 to 1:2 by circular dichroism analysis; format: nucleic-acid assay; settings: Bos taurus
A549 [25] = assay: Induction of apoptosis in human A549 cells assessed as viable cells at 5 uM after 24 hrs by Annexin V-FITC/propidium iodide staining based flow cytometry (reference value: 88.4%); format: functional; settings: A549, 24 h, read-out: Activity
Calf thymus DNA [26] = assay: Binding affinity to calf thymus DNA assessed as decrease in emission peak intensity by spectrofluorimetric method; format: nucleic-acid assay; settings: Bos taurus
Calf thymus DNA [27] = assay: Binding affinity to calf thymus DNA assessed as dissociation constant after 5 mins by UV-Visible spectroscopic method; format: nucleic-acid assay, Bos taurus
A549 [28] = assay: Induction of apoptosis in human A549 cells assessed as cell detachment from substratum at 1 to 5 uM after 24 hrs by phase contrast microscopic method; format: functional, cell-based
A549 [29] = assay: Induction of apoptosis in human A549 cells assessed as late apoptotic cells at 3 uM after 24 hrs by Annexin V-FITC/propidium iodide staining based flow cytometry (reference value: 0.4%); format: functional
A549 [30] = assay: Induction of apoptosis in human A549 cells assessed as necrotic cells at 3 uM after 24 hrs by Annexin V-FITC/propidium iodide staining based flow cytometry (reference value: 0%); format: functional
A549 [31] = assay: Induction of apoptosis in human A549 cells assessed as early apoptotic cells at 3 uM after 24 hrs by Annexin V-FITC/propidium iodide staining based flow cytometry (reference value: 11.2%); format: functional
A549 [32] = assay: Induction of apoptosis in human A549 cells assessed as early apoptotic cells at 5 uM after 24 hrs by Annexin V-FITC/propidium iodide staining based flow cytometry (reference value: 11.2%); format: functional
A549 [33] = assay: Induction of apoptosis in human A549 cells assessed as necrotic cells at 1 uM after 24 hrs by Annexin V-FITC/propidium iodide staining based flow cytometry (reference value: 0%); format: functional

COc1cc(/C(=C\c2ccc(C(F)(F)F)cc2)C(=O)NCc2cc3c([nH]c4ccccc43)c(-c3cccc(F)c3)n2)cc(OC)c1OC
inhibition [1]: Active
Activity (A549 [2]): Dose-dependent effect
Activity (Calf thymus DNA [3]): Active
Activity (A549 [4]): 6.8%
pIC50 (HeLa): 5.00
Activity (A549 [5]): 20.4%
Activity (A549 [6]): Active
Activity (Calf thymus DNA [7]): Active
Activity (A549 [8]): Active
Activity (A549 [9]): Active
Activity (Calf thymus DNA [10]): Active
Activity (A549 [11]): Active
Activity (Calf thymus DNA [12]): Active
viability at 3 µM (A549 [13]): 62.8%
Activity (A549 [14]): 2.4%
Activity (A549 [15]): Active
Activity (A549 [16]): Active
Activity (A549 [17]): Dose-dependent effect
Activity (Calf thymus DNA [18]): Active
pIC50 (DU-145): 5.82
pIC50 (A549 [19]): 6.00
viability at 1 µM (A549 [20]): 69.7%
Activity (Calf thymus DNA [21]): Active
Activity (A549 [22]): 4.9%
Activity (A549 [23]): Active
Activity (Calf thymus DNA [24]): Active
viability at 5 µM (A549 [25]): 59.3%
Activity (Calf thymus DNA [26]): Active
pKd (Calf thymus DNA [27]): 4.15
Activity (A549 [28]): Active
Activity (A549 [29]): 6.7%
Activity (A549 [30]): 1.9%
Activity (A549 [31]): 28.6%
Activity (A549 [32]): 33.4%
Activity (A549 [33]): 3.2%
